{"source": "patent US11660300B2", "about": "“Method of maintaining oral health in animals” (Boehringer Ingelheim Animal Health USA Inc., priority 2006, dated 2023)", "type_in_all_cases": "in vivo", "key": {"[1]": {"system": "dental plaque", "assay": "Presence of dental plaque (erythrosine staining) in beagle dogs given delmopinol dog snack", "details": "for Number of sites with presence of dental plaque on the buccal surfaces: upper jaw (UJ), dogs 1-4 and Sum", "method": "(§1) A study was carried out to investigate the effect of dog snacks containing delmopinol on gingivitis and calculus formation in beagle dogs. Eight female dogs were used in the study. […] During a pre-experimental period of four weeks, the teeth in the upper jaws of all dogs were scaled and polished professionally with a rubber cup, pumice and water, on a weekly basis. The teeth of the upper jaws were also thoroughly brushed with a toothbrush and water, for 2 minutes daily. The teeth in the lower jaws were not cleaned. During this pre-experimental period the dogs were fed a soft gingivitis-inducing diet. Using these procedures, two different clinical conditions prevailed in the dogs at the end of the pre-experimental period: in the upper jaw the gingiva was clinically healthy while in the lower jaws gingivitis prevailed. […] In the upper jaws, the presence of plaque and gingivitis was measured at the buccal surfaces of canines, first, second, third, fourth premolars and first molars. In the lower jaws the measurements were undertaken at the buccal surfaces of canines and first molars, in total […] were examined clinically. 12 surfaces were clinically healthy prior to the experimental period and 4 surfaces were not maintained with oral hygiene measures. All experimental procedures, (except the tooth brushing during the pre-experimental period) were performed with the dogs anaesthetized by intravenous Pentothal (Abbot, Belgium). […] The various measurements were taken on days 0, 14 and 28. Clinical photos were taken of the upper jaws at the same occasions as the measurements. The presence of plaque was scored following staining of the teeth with erythrosine dye. Plaque was noted if stained dental plaque was in contact with the buccal gingival margin."}, "[2]": {"system": "calculus formation", "assay": "Calculus formation in beagle dogs given delmopinol dog snack", "details": "for Number of teeth with calculus on the buccal surfaces of the teeth of the upper jaw: dogs 1-4 and Sum", "method": "A study was carried out to investigate the effect of dog snacks containing delmopinol on gingivitis and calculus formation in beagle dogs. Eight female dogs were used in the study. […] During a pre-experimental period of four weeks, the teeth in the upper jaws of all dogs were scaled and polished professionally with a rubber cup, pumice and water, on a weekly basis. The teeth of the upper jaws were also thoroughly brushed with a toothbrush and water, for 2 minutes daily. The teeth in the lower jaws were not cleaned. During this pre-experimental period the dogs were fed a soft gingivitis-inducing diet. Using these procedures, two different clinical conditions prevailed in the dogs at the end of the pre-experimental period: in the upper jaw the gingiva was clinically healthy while in the lower jaws gingivitis prevailed. […] In the upper jaws, the presence of plaque and gingivitis was measured at the buccal surfaces of canines, first, second, third, fourth premolars and first molars. In the lower jaws the measurements were undertaken at the buccal surfaces of canines and first molars, in total […] were examined clinically. 12 surfaces were clinically healthy prior to the experimental period and 4 surfaces were not maintained with oral hygiene measures. All experimental procedures, (except the tooth brushing during the pre-experimental period) were performed with the dogs anaesthetized by intravenous Pentothal (Abbot, Belgium). […] The various measurements were taken on days 0, 14 and 28. Clinical photos were taken of the upper jaws at the same occasions as the measurements. Presence or absence of calculus was noted on the buccal surfaces of the teeth in the upper jaws."}, "[3]": {"system": "gingivitis", "assay": "Bleeding on probing (gingivitis) in beagle dogs given delmopinol dog snack", "details": "for Number of sites with gingival bleeding at the buccal surfaces: dogs 1-4 and Sum", "method": "as §1, with “Bleeding on probing” for “The presence of plaque”, “scored according to Löe, H and Silness, J (1963) Periodontal disease in pregnancy. Prevalence and severity. Acta Odontologica Scandinavia 21, 533-551. Presence of gingivitis was registered if bleeding occurred within 20 seconds” for “scored”, “gentle probing” for “staining”, “of” for “of the teeth with erythrosine dye. Plaque was noted if stained dental plaque was in contact with”"}}, "data": [{"smiles": "CCCC(CCC)CCCC1COCCN1CCO", "note": "(stereo not drawn) [Delmopinol, 3-(4-propyl-heptyl)-4-(2-hydroxyethyl)morpholine]", "values": [{"measurement": "Number of sites with presence of dental plaque on the buccal surfaces", "setting": "[1]; Day 0 (baseline), n = 48 sites in sum", "result": 0, "unit": "sites"}, {"measurement": "Number of sites with presence of dental plaque on the buccal surfaces", "setting": "[1]; Day 0 (baseline), n = 48 sites in sum, listed as delmopinol", "result": "plaque free"}, {"measurement": "reduction in the presence of dental plaque relative the control dogs", "setting": "[1]; Day 14, upper jaw", "result": "around 20%"}, {"measurement": "Number of sites with presence of dental plaque on the buccal surfaces", "setting": "[1]; Day 28 (14 days after last snack), n = 48", "result": "all teeth"}, {"measurement": "plaque accumulation", "setting": "[1]; snacks with or without the tested component", "result": "did not alter"}, {"measurement": "Number of teeth with calculus on the buccal surfaces of the teeth of the upper jaw", "setting": "[2]; Day 0 (baseline), n = 48 measured sites", "result": 0, "unit": "teeth"}, {"measurement": "Number of teeth with calculus on the buccal surfaces of the teeth of the upper jaw", "setting": "[2]; Day 0 (baseline), n = 48 measured sites, listed as delmopinol", "result": "None"}, {"measurement": "Number of teeth with calculus on the buccal surfaces of the teeth of the upper jaw", "setting": "[2]; Day 14, n = 48 measured sites", "result": 6, "unit": "teeth"}, {"measurement": "Number of teeth with calculus on the buccal surfaces of the teeth of the upper jaw", "setting": "[2]; Day 28, n = 48 measured sites", "result": 37, "unit": "teeth"}, {"measurement": "calculus formation versus control", "setting": "[2]; in the presence of dental plaque and with a calculus-promoting soft diet", "result": "strongly reduced"}, {"measurement": "Number of sites with gingival bleeding at the buccal surfaces", "setting": "[3]; Day 0 (baseline), lower jaw (LJ), n = 16", "result": 15, "unit": "sites"}, {"measurement": "Number of sites with gingival bleeding at the buccal surfaces", "setting": "[3]; Day 0 (baseline), upper jaw (UJ), n = 48", "result": "one"}, {"measurement": "Number of sites with gingival bleeding at the buccal surfaces", "setting": "[3]; Day 14, lower jaw (LJ), n = 16", "result": "five"}, {"measurement": "Number of sites with gingival bleeding at the buccal surfaces", "setting": "[3]; Day 14, upper jaw (UJ), n = 48", "result": 13, "unit": "sites"}, {"measurement": "Number of sites with gingival bleeding at the buccal surfaces", "setting": "[3]; Day 28, lower jaw (LJ), n = 16", "result": 12, "unit": "sites"}, {"measurement": "Number of sites with gingival bleeding at the buccal surfaces", "setting": "[3]; Day 28, upper jaw (UJ), n = 48", "result": 21, "unit": "sites"}, {"measurement": "reduction of established gingivitis", "setting": "[3]; delmopinol added in the snack, snack alone 50%, lower jaw, day 0 to day 14", "result": 69, "unit": "%"}, {"measurement": "increase of inflammation after stopping pre-experimental oral hygiene, versus control group", "setting": "[3]; paired t-test p=0.05", "result": "significantly less"}]}]}
